US5892063A (Hauser, Inc., priority 1997, dated 1999)

Legend:
SNB-75 = assay: SRB growth screen, CNS cancer SNB-75; conditions: Homo sapiens, SNB-75, 48 h
HS 578T = assay: SRB growth screen, breast cancer HS 578T; conditions: Homo sapiens, 48 h
[1] = test system: cell line panel (leukemia, non-small-cell lung cancer, colon, CNS, melanoma, ovarian, renal, prostate and breast cancers); assay: SRB growth screen, whole cell line panel; assay type: cell-based
Description: The screening assay is performed on 96-well microtitre plates. […] Duplicate wells are prepared for all concentrations; "time-zero" and "nodrug" controls are also provided for each test. […] One hundred microliters of SRB solution (0.4% w/v in 1% acetic acid) is added to each microtitre well and incubated for 10 minutes at room temperature.
The response parameters GI50 and LC50 are interpolated values representing the concentrations at which the percentage growth (PG) is +50 and -50 respectively:
GI50 is the concentration for which the PG=+50.
TGI is the concentration for which PG=0.
LC50 is the concentration for which the PG=-50. […] This is interpreted as cytotoxicity.
The data represented in Table I is graphically represented in FIGS. 1a and 1b through FIGS. 9a and 9b. […] The following is an example of how the information in Table I and in the Figures is interpreted.

tumor models = conditions: cited from earlier work
microtubule = conditions: cited from earlier work
[2] = read-out: Log10 GI50 (converted)
[3] = read-out: Log10 LC50 (converted)

SMILES	GI50 (SNB-75; [2])	CC50 (SNB-75; [3])	GI50 (HS 578T; [2])	CC50 (HS 578T; [3])	IC (TGI) (HS 578T; read-out: Log10 TGI)	potency as compared to paclitaxel ([1]; on the whole, all cell lines)	Log10 TGI, Range ([1]; range over cell lines (log10 units))	activity in model tumor systems (tumor models)	effect on microtubules (microtubule)
CC(=O)O[C@H]1C(=O)[C@@]2(C)[C@H]([C@H](OC(=O)c3ccccc3)[C@]3(O)C[C@H](OC(=O)[C@H](O)[C@@H](NC(=O)C4(C)OC4C)c4ccccc4)C(C)=C1C3(C)C)[C@]1(OC(C)=O)CO[C@@H]1C[C@@H]2O (stereo partly drawn) [Ceph-epoxide, cephalomannine epoxide]	< 10 nM	> 100000 nM	< 10 nM	> 100000 nM	55 nM	equivalent to and in many instances greater than that of paclitaxel's	4.00		
CC(=O)O[C@H]1C(=O)[C@@]2(C)[C@H]([C@H](OC(=O)c3ccccc3)[C@]3(O)C[C@H](OC(=O)[C@H](O)[C@@H](NC(=O)c4ccccc4)c4ccccc4)C(C)=C1C3(C)C)[C@]1(OC(C)=O)CO[C@@H]1C[C@@H]2O [Paclitaxel, paclitaxel, reference compound]								excellent activity	stabilizes microtubules and inhibits depolymerization back to tubulin
